Values quoted from earlier work, collected in US20220023301A1, “METHODS OF TREATING AUTOIMMUNE DISEASES WITH SMALL MOLECULE NF-kB INHIBITORS” (ImmuneTarget, Inc., priority 2020, published 2022).

Test system: cuprizone induced neuroinflammation mouse model

## CC(C)[C@]12O[C@H]1[C@@H]1O[C@]13[C@]1(O[C@H]1C[C@H]1C4=C(CC[C@@]13C)C(=O)OC4)[C@@H]2O [Triptolide]
0.125 mg/kg administered intraperitoneally daily
  motor function and motor coordination compared to control group: improves motor function and motor coordination
0.125 mg/kg dose
  Bax/Bcl-2 ratio: reduce Bax/Bcl-2 ratio
  behavioral deficits: improve behavioral deficits
  number of OLGs precursor cells (NG-2+/O4+): raise the number of OLGs precursor cells
